What was measured:
Type in all cases: in vivo
[1] = tested on: bFGF-induced neoangiogenesis; experiment: Rat corneal micropocket assay, bFGF disks; settings: 160 mg/kg orally by gavage once per day, days 1 through 10; Fisher 344 female rats
Experimental: Rat Corneal Micropocket Assay
Fisher 344 female rats (145–155 grams; Taconic, Inc., Germantown, N.Y.) were anesthesized with acepromazine (2.5 mg/kg, ip) 20 minutes prior to initiation of 2–3% isoflurane/oxygen inhalation. The body temperature was maintained with a circulating hot water pad. The surgery was performed using an ophthalmic operating microscope (OMS.75 Operating Microscope, TopCon Corporation, Japan). A scalpel blade (#15) was used to make a vertical half-thickness linear corneal incision just lateral to the center of the eye. […] A pocket was formed in the cornea using blunt dissection with corneal scissors (Roboz, Rockville, Md.). Nitrocellulose filters ([…], Millipore, Bedford, Mass.) were cut into small disks using a 20 gauge needle punch. The disks were soaked in 2 μl of human VEGF solution ([…]; R&D Systems) or human basic fibroblast growth factor (0.20 μg/μl; R&D Systems) for 10 minutes on ice. Using forceps, the disks impregnated with the angiogenic factor (VEGF or bFGF) were inserted into the corneal pocket so that the disk is firmly covered with corneal epithelium. […] The images were analyzed by converting the area of interest to high contrast black and white reversed image and counting the bright pixels as a determination of the vascular area. […]

HUMAN PROSTATE LNCaP = experiment: Early stage human prostate LNCaP xenograft (Table VII); settings: total dose 840 mg/kg: 140 mg/kg/injection IV on days 3, 5, 7, 9, 10, and 11, Balb/C SCID female mice
Text: (§1) Conventional Murine Tumor and Human Tumor Xenouraft Assays
(§2) Inhibition of tumors transplanted into mice is an accepted procedure for studying the efficacy of antitumor agents (Corbett, et al., In vivo Methods for Screening and Preclinical Testing; Use of rodent solid tumors for drug discovery., In: Anticancer Drug Development Guide: Preclinical Screening, Clinical Trials, and Approval, B. Teicher (ed), Humana Press Inc., Totowa, N.J., Chapter 5, pages 75–99 (1997); (Corbett, et al., Int., J. Parmacog., 33, Supplement, 102–122 (1995)). Murine tumors or human xenographs were implanted essentially as described by Corbett in In vivo Methods for Screening and Preclimical Testing; Use of rodent solid tumors for drug discovery. Briefly, the murine tumor or human xenograph was implanted subcutaneously using either 12-gauge trocar implants or counted number of cells. The location for the trocar insertion is midway between the axillary and inguinal region along the side of the mouse. The trocar is slipped approximately ¾ of an inch subcutaneously up toward the axilla before discharging the tumor fragment, and pinching the skin as the trocar is removed., Alternatively, human tumor cells prepared from a […] of donor tumors (5×10^6 cells) were implanted subcutaneously in a hind-leg of a male or female nude mouse (Charles River). Either a test compound in vehicle or vehicle alone was administered by intravenous bolus injection (iv), intraperitoneal injection (ip), or oral gavage (po). Each treatment group, as well as a group of untreated control animals, consisted of five animals per group in each experiment. Subcutaneous tumor response was monitored by tumor volume measurement performed twice each week over the course of the experiment (60–120 days). Body weights were taken as a general measure of toxicity. The subcutaneous tumor data were analyzed by determining the median tumor weight for each treatment group over the course of the experiment and calculating the tumor growth delay as the difference in days for the treatment versus the control tumors to reach a volume of either 500 or 1000 mm^3.
(§3) The compound of Example 110 was tested against a variety of murine and human tumors substantially as described supra. The parameters measured in each experiment are summarized in the following paragraphs. • Tumor Weight(mg)=(a×b^2)/2 where a=tumor length (mm) and b=tumor width (mm). • Tumor Growth Delay=T−C where T is the median time (days) required for the treatment group tumors to reach a predetermined size, and C is the median time (days) for the control group tumors to reach the same size. Tumor-free survivors are excluded from this calculation, and are tabulated separately (Tumor Free).
(§4) [formula] • where Tumor Growth Delay is as previously defined and Td is tumor volume doubling time (days), estimated from the best fit straight line from a log-linear growth plot of the control group of tumors in exponential growth (100–800 mg range) • % T/C mass—The treatment and control groups are measured when the control group tumors reach approximately 700 to 1200 mg in size (median group). The median tumor weight of each group is determined (including zeros). The T/C value in percent is an indication of antitumor effectiveness. A T/C≦42% is considered significant antitumor activity. A T/C<10% is considered to indicate highly significant antitumor activity. • Body Weight Loss Nadir—A body weight loss nadir (mean of group) of greater than 20% or drug deaths greater than 20% are considered to indicate an excessively toxic dosage in single course trials. • Activity Rating—the Activity Rating is derived from the Log Kill according to the following table: […]

[2] = tested on: TAXOL RESISTANT HUMAN COLON ADENOCARCINOMA #15/MDR; experiment: Early stage taxol resistant human colon adenocarcinoma #15/MDR xenograft (Table XII); settings: total dose 500 mg/kg: 100 mg/kg/injection IV on days 3–5 and 13–14; Balb/C SCID female mice
Text: as §1, §2, §3, §4

O=C(NS(=O)(=O)c1ccccc1)c1ccc(Cl)cc1Cl [Example 110, N-[2,4-dichlorobenzoyl]phenylsulfonamide]
inhibition of bFGF-induced neoangiogenesis [1]: not an effective inhibitor | % BODY WT LOSS AT NADIR (HUMAN PROSTATE LNCaP): +5.6% | % T/C MASS (HUMAN PROSTATE LNCaP): 0% | ACTIVITY RATING (HUMAN PROSTATE LNCaP): ++++ (HIGHLY ACTIVE >2.8) | DRUG DEATHS (HUMAN PROSTATE LNCaP): 0/5 | TUMOR FREE AT DAY 185 (HUMAN PROSTATE LNCaP): 4/5 | GROWTH DELAY (DAYS) (HUMAN PROSTATE LNCaP; one mouse): 60^b DAYS | LOG KILL (HUMAN PROSTATE LNCaP; one mouse): 7.2^b | % BODY WT LOSS AT NADIR [2]: +2.1% ^ | % T/C MASS [2]: 10% | ACTIVITY RATING [2]: ++ (1.3–1.9) | DRUG DEATHS [2]: 0/5 | GROWTH DELAY [2]: 11 days | LOG KILL [2]: 1.4 | TUMOR FREE AT DAY 38 [2]: 0/5

Source: patent publication US7183320B2, “Benzoylsulfonamides and sulfonylbenzamidines for use as antitumour agents” (Eli Lilly and Company, priority 2002, dated 2007)
